From ChEMBL document CHEMBL1144145, “Sesquiterpene polyol esters from the leaves of maytenus macrocarpa” (J Nat Prod, 1999)

Assays:
Assay type in all cases: functional, cell-based
[1] = Cytotoxicity against human MEL28 cells by […]; conditions: SK-MEL-28
[2] = system: A549; assay: Cytotoxicity against human A549 cells by […]
[3] = system: HT-29; assay: Cytotoxicity against human HT-29 cells by […]
[4] = system: P388; assay: Cytotoxicity against mouse P388 cells by […]

Measured: IC50

CC(=O)OC[C@@]12[C@@H](OC(=O)c3ccccc3)CC[C@](C)(O)[C@]13OC(C)(C)[C@H]([C@H](OC(C)=O)[C@H]2OC(=O)c1ccccc1)[C@H]3OC(C)=O
> 25 µg/mL: all assays above
